Results taken from ChEMBL document CHEMBL3872224, “Synthesis and cytotoxicity of novel artemisinin derivatives containing sulfur atoms” (Eur J Med Chem, 2016).

Key:
[1] = Cytotoxicity against human A549 cells measured after 72 hrs by MTT assay; assay type: functional, cell-based; details: A549, 72 h
[2] = Cytotoxicity against human SGC7901 cells measured after 72 hrs by MTT assay; assay type: functional, cell-based; details: SGC-7901, 72 h
[3] = Cytotoxicity against human PC3 cells measured after 72 hrs by MTT assay; assay type: functional, cell-based; details: PC-3, 72 h
[4] = system: SGC-7901; experiment: Selectivity index, ratio of IC50 for human L02 cells to IC50 for human SGC7901 cells; assay type: functional
[5] = Cytotoxicity against human MDA-MB-435S cells measured after 72 hrs by MTT assay; assay type: functional, cell-based
[6] = Cytotoxicity against human L02 measured after 72 hrs by MTT assay; assay type: toxicity; details: L02 cells
[7] = system: A549; experiment: Selectivity index, ratio of IC50 for human L02 cells to IC50 for human A549 cells; assay type: functional

SMILES	IC50 [1] [µM]	IC50 [2] [µM]	IC50 [3] [µM]	Ratio IC50 [4]	IC50 [5] [µM]	IC50 at 72 h [6] [µM]	Ratio IC50 [7]
CCCCSc1cccc(C(=O)O[C@@H]2O[C@@H]3O[C@]4(C)CC[C@H]5[C@H](C)[C@H](O)C[C@@H]([C@H]2C)[C@@]35OO4)c1	96.1	173	464	–	–	–	–
COc1ccc(Sc2cccc(C(=O)O[C@@H]3O[C@@H]4O[C@]5(C)CC[C@H]6[C@H](C)[C@H](OC(=O)c7cccc(Sc8ccc(OC)cc8)c7)C[C@@H]([C@H]3C)[C@@]46OO5)c2)cc1	4.3	6	30.5	11.5	108	69.2	16.1
C[C@@H]1[C@H](OC(=O)c2cccc(SCc3ccccc3)c2)C[C@H]2[C@@H](C)[C@H](OC(=O)c3cccc(SCc4ccccc4)c3)O[C@@H]3O[C@]4(C)CC[C@@H]1[C@]32OO4	223	–	–	–	289	–	–
COc1ccc(Sc2cccc(C(=O)O[C@@H]3O[C@@H]4O[C@]5(C)CC[C@H]6[C@H](C)[C@H](O)C[C@@H]([C@H]3C)[C@@]46OO5)c2)cc1	1.6	7.1	13	11.3	124	80.2	50.1
C[C@@H]1[C@H](O)C[C@H]2[C@@H](C)[C@H](OC(=O)c3cccc(SC4CCCCC4)c3)O[C@@H]3O[C@]4(C)CC[C@@H]1[C@]32OO4	33.3	553	204	–	29.6	–	–
CCSc1cccc(C(=O)O[C@@H]2O[C@@H]3O[C@]4(C)CC[C@H]5[C@H](C)[C@H](O)C[C@@H]([C@H]2C)[C@@]35OO4)c1	1440	–	–	–	120	–	–
CCSc1cccc(C(=O)O[C@@H]2O[C@@H]3O[C@]4(C)CC[C@H]5[C@H](C)[C@H](OC(=O)c6cccc(SCC)c6)C[C@@H]([C@H]2C)[C@@]35OO4)c1	44.4	74.2	30	–	112	–	–
C[C@@H]1[C@H](O)C[C@H]2[C@@H](C)C(=O)O[C@@H]3O[C@]4(C)CC[C@@H]1[C@]32OO4	80.4	–	–	–	21.9	146	1.8
C[C@@H]1[C@H](O)C[C@H]2[C@@H](C)[C@H](OC(=O)c3cccc(SCc4ccccc4)c3)O[C@@H]3O[C@]4(C)CC[C@@H]1[C@]32OO4	95	–	146	–	223	–	–
CCCCSc1cccc(C(=O)O[C@@H]2O[C@@H]3O[C@]4(C)CC[C@H]5[C@H](C)[C@H](OC(=O)c6cccc(SCCCC)c6)C[C@@H]([C@H]2C)[C@@]35OO4)c1	107	85	115	–	–	–	–
O=c1[nH]cc(F)c(=O)[nH]1 [FLUOROURACIL]	6.8	–	–	2.2	15.2	25.9	3.8
